These results are taken from patent US20230406865A1, “CRYSTAL FORM OF FREE BASE OF INHIBITOR CONTAINING BICYCLIC RING DERIVATIVE AND PREPARATION METHOD AND APPLICATION OF CRYSTAL FORM” (SHANGHAI HANSOH BIOMEDICAL CO., LTD., priority 2020, published 2023).

For test [1], the target named is T1, RET M918T (Homo sapiens, UniProt P07949, M918T).
T1 construct: purchased Carna 08-508
Put plainly: HTRF kinase activity inhibition, RET M918T. The test is classed as biochemical. Conditions: ATP at Km.

The target in test [2] is T2, KIF5B-RET (Homo sapiens, UniProt P07949).
T2 construct: purchased SignalChem R02-19FG-05; the other entry of the earlier key: KIF5B (P33176, Kinesin-1 heavy chain)
T2 sequence (P07949 with tags, fused parts or gaps): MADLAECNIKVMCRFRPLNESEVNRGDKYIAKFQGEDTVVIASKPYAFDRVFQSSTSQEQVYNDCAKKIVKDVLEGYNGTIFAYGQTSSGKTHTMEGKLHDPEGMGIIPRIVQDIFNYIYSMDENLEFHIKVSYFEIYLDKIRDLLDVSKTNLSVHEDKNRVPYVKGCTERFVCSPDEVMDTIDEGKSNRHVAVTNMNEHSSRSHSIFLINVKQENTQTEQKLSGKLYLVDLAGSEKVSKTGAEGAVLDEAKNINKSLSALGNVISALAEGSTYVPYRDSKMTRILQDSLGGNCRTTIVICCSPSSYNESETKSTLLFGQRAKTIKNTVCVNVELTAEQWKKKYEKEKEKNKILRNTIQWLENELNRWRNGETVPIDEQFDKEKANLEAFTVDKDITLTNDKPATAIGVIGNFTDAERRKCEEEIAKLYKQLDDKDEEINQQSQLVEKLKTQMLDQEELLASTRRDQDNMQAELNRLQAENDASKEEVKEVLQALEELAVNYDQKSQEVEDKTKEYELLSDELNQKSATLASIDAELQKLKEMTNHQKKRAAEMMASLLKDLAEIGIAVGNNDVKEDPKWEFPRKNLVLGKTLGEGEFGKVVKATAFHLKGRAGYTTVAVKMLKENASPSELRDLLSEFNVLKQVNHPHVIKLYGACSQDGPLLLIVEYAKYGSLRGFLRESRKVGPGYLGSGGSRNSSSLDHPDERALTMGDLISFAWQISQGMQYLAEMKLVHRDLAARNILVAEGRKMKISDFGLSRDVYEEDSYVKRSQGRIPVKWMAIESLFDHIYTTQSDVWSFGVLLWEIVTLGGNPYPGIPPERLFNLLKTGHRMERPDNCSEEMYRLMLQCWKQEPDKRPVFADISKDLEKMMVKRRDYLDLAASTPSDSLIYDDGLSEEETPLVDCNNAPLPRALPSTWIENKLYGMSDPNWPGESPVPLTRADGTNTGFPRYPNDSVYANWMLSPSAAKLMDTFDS
Put plainly: HTRF kinase activity inhibition, KIF5B-RET. The class given is biochemical. Conditions: ATP at Km. The source says:
(§1) 2.2 Experimental Reagents: • RET enzyme was purchased from Carna Company, and the article number was 08-159; • RET M918T enzyme was purchased from Carna Company, and the article number was 08-508; • KIF5B-RET was purchased from SignalChem Company, the article number was R02-19FG-05; • CCDC6-RET was purchased from SignalChem Company, the article number was R02-19BG-05; • RET V804M enzyme was purchased from Thermofisher Company, and the article number was PV6223; • RET V804L enzyme was purchased from Thermofisher Company, and the article number was PV4397; • HTRF KinEASE-TK kit was purchased from Cisbio Company, and the article number was 62TK0PEC; • ATP was purchased from Thermofisher Company, and the article number was PV3227; • 384-well plate was purchased from PerkinElmer Company, and the article number was 6007290.
(§2) In this experiment, a homogeneous time-resolved fluorescence (HTRF) method was used for the detection of compounds on RET kinase activity.

Test [3] concerns the target T3, RET V804M (Homo sapiens, UniProt P07949, V804M).
T3 construct: purchased Thermofisher PV6223
The experiment in a line: HTRF kinase activity inhibition, RET V804M. The test is classed as biochemical. Conditions: ATP at Km.
Excerpt: as §1, §2
In general terms: In TR-FRET formats the signal depends on donor and acceptor labels being close together.

The target of test [4] is T4, Ba/F3 KIF5B-RET cells (Homo sapiens, UniProt P07949).
T4 construct: fused on or other part: P33176 (Kinesin-1 heavy chain)
The experiment in a line: Inhibition of proliferation of Ba/F3 KIF5B-RET cells (CellTiter-Glo). The class given is cell-based. Conditions: 72 to 144 hours. An outline of the steps: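 Cells plated overnight, then exposed to compound dilutions in DMSO/medium at 37° C, 5% CO2 for 72 to 144 hours. Viability read by CellTiter-Glo luminescence; IC50 from inhibition rates fitted by nonlinear regression.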

Test [5] relates to subcutaneous transplanted tumor of Ba/F3 KIF5B-RET cells. The experiment in a line: Tumor suppression on Ba/F3 KIF5B-RET transplanted tumor model. The class given is in vivo, BALB/c nude mice. The protocol:
Ba/F3 KIF5B-RET cells were removed from the cell bank, resuscitated and added to RPMI1640 medium (RPMI1640+10% FBS+1% Glu+1% P/S), then cultured in a CO2 incubator (incubator temperature was 37° C., CO2 concentration was 5%), and when the cell number expanded to the required number for in vivo inoculation, Ba/F3 KIF5B-RET cells were collected. The cells were counted with an automatic cell counter, resuspended with PBS according to the count results, made into a cell suspension (density was 2×10^7/mL), and placed in an ice box for use.
Female BALB/c nude mice aged 6-8 weeks were used, weighing about 18-22 g. Mice were reared in SPF animal room, and were reared in a single cage with 5 mice in each cage. All cages, bedding and water were sterilized at high temperature before use, and all animals were allowed to eat and drink freely. Nude mice were labeled with disposable universal ear tags for mice and rats before the start of the experiment, and the skin of the inoculation site was disinfected with 75% medical alcohol before inoculation. 0.1 mL (containing 2*10^6 cells) of Ba/F3 KIF5B-RET cells were inoculated subcutaneously on the right back of each mouse. Group administration was initiated when the tumor volume reached 60-200 mm^3, with 5 mice in each group. Each test compound was administered orally twice a day for 14 days. The tumor volume and the weight of mice were measured twice a week, and the tumor TGI (%) was calculated.
The tumor volume (mm^3) was calculated as V=0.5*D*d*d, where D and d were the long and short diameters of the tumor, respectively.
When there was no tumor regression, TGI (%)=[(1-(mean tumor volume at the end of the administration in a treatment group−mean tumor volume at the start of administration in the treatment group))/(mean tumor volume at the end of treatment in the solvent control group−mean tumor volume at the start of treatment in the solvent control group)]×100%.
When there was tumor regression, TGI (%)=[1-(mean tumor volume at the end of administration in a treatment group−mean tumor volume at the beginning of administration in the treatment group)/mean tumor volume at the beginning of administration in the treatment group]×100%.

T1 sequence (P07949 29-1114 M918T): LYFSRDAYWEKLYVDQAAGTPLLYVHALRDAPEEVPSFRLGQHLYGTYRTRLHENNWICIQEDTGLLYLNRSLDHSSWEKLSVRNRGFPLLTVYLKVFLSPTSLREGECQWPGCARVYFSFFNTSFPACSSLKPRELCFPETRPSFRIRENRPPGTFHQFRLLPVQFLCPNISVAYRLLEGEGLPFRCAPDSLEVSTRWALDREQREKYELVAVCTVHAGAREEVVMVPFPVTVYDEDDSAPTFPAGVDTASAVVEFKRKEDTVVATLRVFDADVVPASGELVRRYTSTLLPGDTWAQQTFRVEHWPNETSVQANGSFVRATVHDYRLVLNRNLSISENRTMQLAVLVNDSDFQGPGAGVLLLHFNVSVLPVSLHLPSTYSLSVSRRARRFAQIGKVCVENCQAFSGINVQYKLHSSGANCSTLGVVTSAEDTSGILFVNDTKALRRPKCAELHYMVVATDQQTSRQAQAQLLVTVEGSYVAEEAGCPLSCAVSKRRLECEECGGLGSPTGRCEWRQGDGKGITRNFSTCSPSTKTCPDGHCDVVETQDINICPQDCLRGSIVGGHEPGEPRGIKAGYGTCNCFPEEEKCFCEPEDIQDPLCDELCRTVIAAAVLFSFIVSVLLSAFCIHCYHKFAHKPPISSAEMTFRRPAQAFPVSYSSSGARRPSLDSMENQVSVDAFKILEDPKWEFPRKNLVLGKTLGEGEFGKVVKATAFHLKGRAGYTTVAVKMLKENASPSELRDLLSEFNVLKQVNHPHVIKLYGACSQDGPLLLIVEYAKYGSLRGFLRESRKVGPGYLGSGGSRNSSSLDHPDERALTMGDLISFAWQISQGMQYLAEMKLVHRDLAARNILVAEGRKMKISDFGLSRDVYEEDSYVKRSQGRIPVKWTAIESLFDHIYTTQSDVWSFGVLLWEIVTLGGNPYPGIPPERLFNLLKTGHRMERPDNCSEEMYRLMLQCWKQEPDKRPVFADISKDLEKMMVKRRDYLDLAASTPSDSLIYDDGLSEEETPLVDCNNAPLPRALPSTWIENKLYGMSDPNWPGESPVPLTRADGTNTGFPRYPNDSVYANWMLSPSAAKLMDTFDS
T4 sequence (P07949 whole entry, change not shown, the tested form may be a part): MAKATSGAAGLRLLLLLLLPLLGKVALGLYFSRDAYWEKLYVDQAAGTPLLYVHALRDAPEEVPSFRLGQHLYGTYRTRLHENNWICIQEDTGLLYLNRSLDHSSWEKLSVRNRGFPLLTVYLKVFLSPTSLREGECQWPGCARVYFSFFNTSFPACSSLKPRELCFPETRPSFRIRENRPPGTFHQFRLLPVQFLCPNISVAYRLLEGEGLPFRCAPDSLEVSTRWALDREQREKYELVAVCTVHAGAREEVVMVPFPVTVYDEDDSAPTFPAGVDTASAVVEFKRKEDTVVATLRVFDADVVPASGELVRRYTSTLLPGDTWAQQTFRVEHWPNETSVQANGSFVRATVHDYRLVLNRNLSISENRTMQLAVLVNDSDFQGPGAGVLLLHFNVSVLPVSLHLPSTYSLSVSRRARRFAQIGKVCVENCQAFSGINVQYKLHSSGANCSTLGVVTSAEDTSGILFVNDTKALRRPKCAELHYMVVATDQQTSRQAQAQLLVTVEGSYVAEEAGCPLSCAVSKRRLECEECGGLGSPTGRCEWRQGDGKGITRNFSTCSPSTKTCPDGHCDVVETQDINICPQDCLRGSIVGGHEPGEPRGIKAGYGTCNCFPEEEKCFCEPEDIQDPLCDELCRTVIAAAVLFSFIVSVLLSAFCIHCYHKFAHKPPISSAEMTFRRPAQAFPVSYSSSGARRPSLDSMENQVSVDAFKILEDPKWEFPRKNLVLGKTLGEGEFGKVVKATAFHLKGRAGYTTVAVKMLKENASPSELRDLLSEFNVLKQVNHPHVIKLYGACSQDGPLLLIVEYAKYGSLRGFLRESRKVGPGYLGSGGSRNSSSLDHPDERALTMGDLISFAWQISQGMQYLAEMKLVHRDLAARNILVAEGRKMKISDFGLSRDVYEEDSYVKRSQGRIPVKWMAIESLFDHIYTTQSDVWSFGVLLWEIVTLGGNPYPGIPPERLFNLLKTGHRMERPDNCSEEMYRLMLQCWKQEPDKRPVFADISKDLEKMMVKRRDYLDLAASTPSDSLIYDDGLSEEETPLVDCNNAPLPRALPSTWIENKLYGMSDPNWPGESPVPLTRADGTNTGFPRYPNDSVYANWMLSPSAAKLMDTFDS
T3 sequence (P07949 29-1114 V804M): as the sequence (P07949 29-1114 M918T) above, with V776M, T890M counted along it

What is called IC50 is the concentration needed to halve the response being measured. For `COc1ncc(CN2C3CC2CN(c2ccc(-c4cc(C#CC(C)(C)O)cn5ncc(C#N)c45)cn2)C3)cc1F` [Embodiment 18, 4-(6-(6-((5-Fluoro-6-methoxypyridin-3-yl)methyl)-3,6-diazabicyclo[3.1.1]heptan-3-yl)pyridin-3-yl)-6-(3-hydroxy-3-methylbut-1-yn-1-yl)pyrazolo[1,5-a]pyridine-3-carbonitrile], the half-inhibitory concentration (IC50) in test [1] stood at 0.66 nM; in test [2] it was 0.97 nM; in test [3] it was 1.8 nM; in test [4], 22.6 nM. For the same compound, the “Tumor volume (Mean ± SD) Day 0” value in test [5] (30 mg/kg oral twice a day) was 132.34 ± 19.40 mm^3. For the same compound, in test [5] (30 mg/kg oral twice a day), the “TGI (%) Day 14” value is 110.35%. Also, in test [5] (30 mg/kg oral twice a day), the “Tumor volume (Mean ± SD) Day 14” value turned out to be 118.64 ± 84.34 mm^3.
`C#C[C@@](C)(O)COc1cc(-c2ccc(N3CC4CC(C3)N4Cc3ccc(OC)nc3)nc2)c2c(C#N)cnn2c1` [Embodiment 63, 6-(((R)-2-hydroxy-2-methylbut-3-yn-1-yl)oxy)-4-(6-(6-((6-methoxypyridin-3-yl)methyl)-3,6-diazabicyclo[3.1.1]heptan-3-yl)pyridin-3-yl)pyrazolo[1,5-a]pyridine-3-carbonitrile]: the IC50 was 0.21 nM in test [1], 0.53 nM in test [2], 0.6 nM in test [3] and 11.1 nM in test [4]. Besides, the “Tumor volume (Mean ± SD) Day 0” value in test [5] (10 mg/kg oral twice a day) worked out at 126.13 ± 17.24 mm^3. The “TGI (%) Day 14” value in test [5] (10 mg/kg oral twice a day) is recorded as 94.66%. For the same compound, the “Tumor volume (Mean ± SD) Day 14” value in test [5] (10 mg/kg oral twice a day) amounted to 219.86 ± 64.31 mm^3.
`C#C[C@](C)(O)COc1cc(-c2ccc(N3CC4CC(C3)N4Cc3ccc(OC)nc3)nc2)c2c(C#N)cnn2c1` [Embodiment 64, 6-(((S)-2-hydroxy-2-methylbut-3-yn-1-yl)oxy)-4-(6-(6-((6-methoxypyridin-3-yl)methyl)-3,6-diazabicyclo[3.1.1]heptan-3-yl)pyridin-3-yl)pyrazolo[1,5-a]pyridine-3-carbonitrile]: the IC50 in test [1] is 0.17 nM; in test [2], 0.36 nM; in test [3], 3 nM; in test [4] it was 22.6 nM. Moreover, in test [5] (10 mg/kg oral twice a day), the “Tumor volume (Mean ± SD) Day 0” value amounted to 126.93 ± 16.98 mm^3. Besides, in test [5] (10 mg/kg oral twice a day), the “TGI (%) Day 14” value is reported as 88.39%. The “Tumor volume (Mean ± SD) Day 14” value in test [5] (10 mg/kg oral twice a day) was 330.85 ± 147.00 mm^3.
With `COc1ccc(CN2C3CC2CN(c2ccc(-c4cc(N5CC(C)(C#N)C5)cn5ncc(C#N)c45)cn2)C3)cn1` [Embodiment 77, 6-(3-Cyano-3-methylazetidin-1-yl)-4-(6-(6-((6-methoxypyridin-3-yl)methyl)-3,6-diazabicyclo[3.1.1]heptan-3-yl)pyridin-3-yl)pyrazolo[1,5-a]pyridine-3-carbonitrile], the IC50 in test [1] was 0.41 nM; in test [2], 0.42 nM; in test [3], 0.6 nM; in test [4] it was 4.79 nM. Moreover, in test [5] (10 mg/kg oral twice a day), the “Tumor volume (Mean ± SD) Day 0” value is 101.59 ± 36.86 mm^3. Also, the “TGI (%) Day 14” value in test [5] (10 mg/kg oral twice a day) was found to be 159.80%. In addition, the “Tumor volume (Mean ± SD) Day 14” value in test [5] (10 mg/kg oral twice a day) is 40.84 ± 53.92 mm^3.
